Converted amounts (≈) assume the structure as drawn. Where two headings read alike, the source gives them in different places.
What was measured:
[1] = tested on: P388 lymphocytic leukemia cell line; assay: PS in vitro: growth inhibition of P388 lymphocytic leukemia cell line, standard N.C.I. protocol; assay type: cell-based, murine
Source text: Cephalostatin 1 was placed against the P388 lymphocytic leukemia cell line using standard National Cancer Institute ("N.C.I.") protocol with the following results:
Cephalostatin 2 was placed against the P388 lymphocytic leukemia cell line using standard National Cancer Institute ("N.C.I.") protocol with the following results:
Cephalostatin 3 was placed against the P388 lymphocytic leukemia cell line using standard National Cancer Institute ("N.C.I.") protocol with the following results:
Cephalostatin 4 was placed against the P388 lymphocytic leukemia cell line using standard National Cancer Institute ("N.C.I.") protocol with the following results: […]

[2] = tested on: murine P388 lymphocytic leukemia; assay: U.S. National Cancer Institute's murine P388 lymphocytic leukemia (PS system), life extension of host; assay type: in vivo; details: for activity against murine P388 lymphocytic leukemia (PS system), in words: mouse, in vivo

| Structure (SMILES) | ED50 (PS cell line) [1] | Life Extension ([2]; 40 μg/Kg host body weight) [%] | activity against murine P388 lymphocytic leukemia (PS system), in words [2] | ED50 (PS cell line) ([1]; listed as cephalostatin 4) | Life Extension ([2]; 100 μg/Kg host body weight) [%] |
| --- | --- | --- | --- | --- | --- |
| C[C@@H]1[C@]2(O[C@H]3C=C4[C@@H]5CC[C@H]6Cc7nc8c(nc7C[C@]6(C)[C@H]5C[C@@H](O)[C@]4(C)[C@]31O)C[C@@H]1CC[C@H]3C4=CC[C@@H]5[C@H](C)[C@@]6(OC[C@]45C(=O)C[C@]3(O)[C@@]1(C)C8)OC(C)(C)C[C@H]6O)O[C@](C)(CO)C[C@H]2O [Cephalostatin 2] | 10^-7 to 10^-9 μg/ml | 35 | confirmed active level | – | – |
| C[C@@H]1[C@]2(O[C@H]3C=C4[C@@H]5CC[C@H]6Cc7nc8c(nc7C[C@]6(C)[C@H]5C[C@@H](O)[C@]4(C)[C@]31O)C[C@@H]1CC[C@H]3C4=CC[C@@H]5[C@H](C)[C@@]6(OC[C@]45C(=O)C[C@@H]3[C@@]1(C)C8)OC(C)(C)C[C@H]6O)O[C@](C)(CO)C[C@H]2O [Cephalostatin 1] | 10^-7 to 10^-9 μg/ml | 31 | confirmed active level | – | – |
| C[C@@H]1[C@]2(O[C@H]3C=C4[C@@H]5CC[C@H]6Cc7nc8c(nc7C[C@]6(C)[C@H]5C[C@@H](O)[C@]4(C)[C@]31O)C[C@@H]1CC[C@H]3C4=CC[C@@H]5[C@H](C)[C@@]6(OC[C@]45C(=O)C[C@]3(O)[C@@]1(C)C8)OC(C)(C)[C@@H](C)[C@H]6O)O[C@](C)(CO)C[C@H]2O [Cephalostatin 3] | 10^-7 to 10^-9 μg/ml | 30 | confirmed active level | – | – |
| C[C@@H]1[C@]2(O[C@H]3C=C4[C@@H]5CC[C@H]6Cc7nc8c(nc7C[C@]6(C)[C@H]5C[C@@H](O)[C@]4(C)[C@]31O)C[C@@H]1CC[C@H]3[C@@]45O[C@@H]4C[C@@H]4[C@H](C)[C@@]6(OC[C@@]45C(=O)C[C@]3(O)[C@@]1(C)C8)OC(C)(C)C[C@H]6O)O[C@](C)(CO)C[C@H]2O [Cephalostatin 4] | 0.00055 µg/mL (≈ 0.583 nM) | – | confirmed active level | 10^-7 to 10^-9 μg/ml | 25 |

Source: US4873245A, “Isolation and structural elucidation of cephalostatins 1-4” (Arizona Board of Regents, priority 1988, dated 1989)
